How the values were obtained:
[1] = system: splenic B cells; assay: CFA-sensitized mice treated with Peptide with or without MLA, FACS of splenic B cells; assay type: in vivo
Experimental: (§1) SUMMARY: A study was conducted to evaluate a potential alpha7 nAChR anti-inflammatory mechanism of the MKR-4 peptide, using the alpha7 nAChR antagonist methyllycaconitine (MLA). After enrollment, animals in Groups 2-4 were sensitized ID at the base of the tail with 0.1 mL FCA on Day 1. On Days 2, 3, 5 & 7 Groups were then dosed intraperitoneally (IP) with either: peptide and MLA in combination (2 mg/kg and 6 mg/kg, respectively); peptide (2 mg/kg) and MLA vehicle (saline) in combination; or peptide vehicle (saline) and MLA vehicle (saline). Animals were dosed once on Study Day 2 (MLA or MLA vehicle), and Days 3, 5 & 7 (Peptide or Peptide vehicle, MLA or MLA vehicle) as described in Table 2 below. Body weights were recorded on Study Days 0 & 8. Mice were euthanized for necropsy on Study Day 8, and serum and whole spleens were collected from all animals and sent to the sponsor for internal FACS analysis. Toxicity and Peptide mechanistic evaluation was based on absolute body weight change, spleen weights and sponsor FACS analysis (not included in report).
Antibodies and Flow Cytometry. Single cell suspensions were made of tissues or cells harvested from culture and stained with the following monoclonal antibodies: a monoclonal antibody directed against mouse alpha 7 nicotinic acetylcholine receptor (alpha 7 nAChR) (Santa Cruz Biotechnology); anti-mouse MHC Class II (M5114), and anti-mouse CLIP 15G4, Santa Cruz. Following staining, cells were analyzed comparing each level of staining to the appropriate isotype control on a Beckman Coulter Cytoflex benchtop flow cytometer. Data was analyzed using FlowJo software (Tree Star Inc.).
Experimental Design: On Study Day 0, mice were weighed and randomized by body weight into treatment groups. Following randomization, on Study Day 1, Groups 2-4 were sensitized ID at the base of the tail with 0.1 mL of FCA. When MLA and Peptide (FRIMAVLAS (SEQ ID NO: 389))—or their vehicles—were dosed on the same day, the MLA antagonist or vehicle was dosed 1 hour before the Peptide or its vehicle.
On Study Day 8, mice were anesthetized with Isoflurane (VetOne, Cat #502017) and bled to exsanguination followed by cervical dislocation for necropsy and tissue collection.

[2] = Toxicity evaluation in CFA/Peptide/MLA study (survival, body weight change, spleen weight); assay type: in vivo, mice
Experimental: as §1, with “report). […]” for “report).”
Statistical Analysis: Data for each animal were entered into Microsoft Excel and means and standard errors for each group were calculated. Test groups were compared to vehicle controls using a one-way analysis of variance (1-way ANOVA) with a Dunnett's post-hoc analysis for measured (parametric) data. […]

[3] = LPS model of sepsis, autoregulation of arterial pressure / afferent arteriolar autoregulatory behavior; assay type: in vivo; settings: LPS treated rats, CAP treatment
Experimental: FIGS. 16A-16B. Treatment with CAP restores afferent arteriolar autoregulatory behavior in chronic LPS (0.1 mg/kg/day) treated kidneys. Each data point represents the mean±SE. * P<0.05 vs. control diameter in the same group. ‡ P<0.05 vs. control for the same perfusion pressure. # P<0.05 vs. CAP for the same perfusion pressure.
Sepsis is a potentially life-threatening condition, is caused by excessive inflammation resulting from the body trying to fend off infection. […] LPS treatment (0.84 mg/kg) of rats is used as a model of sepsis and results in loss of arterial pressure that is inflammatory and mimics loss of autoregulation in sepsis. We discovered that autoregulation of arterial pressure can be restored with CAP treatment (FIG. 16), further supporting its use to treat infectious disease associated with sepsis.

[4] = Preeclampsia model in pregnant mice (TLR agonists), blood pressure; assay type: in vivo; settings: TLR agonist induced, CAP i.p. 2 mg/kg
Experimental: FIG. 15. CAP reverses inflammatory characteristics in a preeclampsia model. Pregnant mice were treated with TLR agonists (R837, Clo97, and PIC) to induce symptoms of preeclampsia followed by CAP treatment (shown as TPP).
(§2) Preeclampsia, a disease suffered by pregnant woman that is characterized by high blood pressure and signs of damage to other organ systems, most often the liver and kidneys, is often accompanied by inflammation. […] Preeclampsia is also associated with an elevated TH17 response, including elevated IL17a, and elevated IL17a is associated with human and experimental hypertension and poor perinatal outcomes. […] Therefore, the anti-inflammatory effects of CAP were associated with improved outcomes in this model.

[5] = system: peripheral pro-inflammatory cells; assay: TBI (fluid percussion injury), peripheral pro-inflammatory cells; assay type: in vivo; settings: TBI / FPI
Source text: FIG. 17. CAP reduces peripheral pro-inflammatory cells. TBI is traumatic brain injury. FPI is fluid percussion injury.

[6] = system: IL17a; assay: Preeclampsia model in pregnant mice (TLR agonists), IL17; assay type: in vivo; settings: PolyI:C or R837 induced; CAP i.p. (2 mg/kg, gestational day 13 elsewhere in the source)
Experimental: FIG. 9. CAP reduces IL-17 production in a model of preeclampsia. Pregnant mice were treated with the TLR3 or […] agonists to induce symptoms of preeclampsia, followed by CAP treatment.
In a separate study, preeclampsia was induced in pregnant mice by injection of either the toll-like receptor 3 (TLR3) agonist, PolyI:C, or with the toll-like receptor 8 ([…]) agonist R837. […] It is pertinent to note that this power issue has been corrected.
as §2

FRIMAVLAS [CAP, α7nAChR agonist]
percentage of splenic B cells ([1]; CFA treated and Peptide treated (2 mg/kg IP), vehicle 49.8%, CFA 50.1%): 34.4%
number of CLIP+ B cells ([1]; CFA treated mice, Peptide 2 mg/kg IP): reduction
survival to study termination ([2]; Peptide 2 mg/kg IP Days 3, 5, 7, with or without MLA): All mice survived
group body weight change differences and spleen weight differences ([2]; Peptide 2 mg/kg IP, with or without MLA 6 mg/kg, CFA mice): none of the group body weight change differences or spleen weight differences were significant
autoregulation of arterial pressure (afferent arteriolar autoregulatory behavior) [3]: restores
elevated blood pressure [4]: significantly reduced
peripheral pro-inflammatory cells [5]: reduces
elevated IL17 (IL17a) [6]: significantly reduced
